Measured values as given in US20050014834A1, “Selective anesthetic agents and methods of identifying the same” (priority 2001, published 2005).

Experiments:
GABAA receptors = conditions: cited from earlier work; for potentiation of the action of GABA: native and all recombinant GABAA receptors studied to date
[1] = tested on: β2N289S knock-in and wildtype mice; test: Loss of righting reflex (LORR) as behavioural measure of anesthesia; type: in vivo, mouse
Experimental: Loss of righting reflex (LORR) was used as a crude behavioural measure of anesthesia. Mice (n=11 wildtype, n=10 knock-in for each dose) were dosed intraperitoneally (i.p.) with 20, 30 or 40 mg/kg etomidate. Each mouse was placed in a separate cage and tested for LORR by gently rolling the mouse on it back. When the righting reflex had disappeared (usually around 90 seconds) the mouse was laid on it back on a piece of corrugated plastic and the time until righting reflex was regained was recorded. In order to avoid excessive heat loss during anesthesia a heat lamp was placed above the mice. To control for non-specific changes in anesthetic sensitivity induced by the mutation two different classes of anesthetics were also tested in this model: pentobarbitone, 50 mg/kg i.p. (n=11) and midazolam, 80 mg/kg i.p. (n=5).

[2] = tested on: β2N289S knock-in and wildtype mice; test: Rotarod test of motor co-ordination: recovery following etomidate anesthesia; type: in vivo, mouse; conditions: for time mice could stay on rotarod: 90 minutes after testing began, rod 16 rpm, 120 second trial
Experimental: Wildtype (n=30) and knock-in (n=30) mice were trained to perform the rotarod test of motor co-ordination. Mice were placed on a rod revolving at 16 rpm and the time taken for them to fall off recorded. Each mouse was given successive training trials until it could remain on the rod for 3 consecutive trials of 120 second duration. Mice were then split into 3 groups (n=10 for each genotype) and dosed i.p. with 15, 20 or 30 mg/kg etomidate. Mice were then placed back on the rotarod every 10 minutes (for 90 minutes), starting from the mean time for recovery of righting reflex for a given dose (obtained from experiment 1). In this way the rate of recovery of the ability to perform a motor task could be assessed.

[3] = tested on: β2N289S knock-in and wildtype mice; test: Level of anaesthesia by electroencephalography (EEG burst suppression); type: in vivo, mouse; conditions: 12.5 mg/kg intravenous; FIG. 4
Experimental: In order to compare the depth of anaesthesia in both genotypes, wildtype (n=4) and knock-in (n=4) mice were implanted with radiotelemetry transmitters for the measurement of electroencephalographic (EEG) data. Mice were allowed to recover from the surgical procedure for 14-21 days before experiment. Mice were dosed with 12.5 mg/kg etomidate by the intravenous route and EEG data was continuously sampled. Data sampled at 250 Hz (transmitter bandwidth 0.5-100 Hz, low pass data filter 70 Hz). Data analysed using Somnologica 3 in 100 mSec epochs for % suppression activity per minute. Isoelectric window defined as waveform amplitude less than 5 μV (typical peak to peak amplitude ˜250 μV).

[4] = tested on: β2N289S knock-in and wildtype mice; test: Post-anaesthetic slow wave sleep by EEG (hypnotic hangover); type: in vivo, mouse; conditions: 12.5 mg/kg intravenous, FIG. 5
Experimental: In order to quantify the amount of post-anaesthetic sleep, wildtype (n=4) and knock-in (n=4) mice were implanted with radiotelemetry transmitters for the measurement of electroencephalographic (EEG) data. Mice were allowed to recover from the surgical procedure for 13 days before experiment. Baseline EEG data was recorded on day 1 of the experimental protocol. On the 2nd experimental day, mice were dosed with 12.5 mg/kg etomidate by the intravenous route and EEG data was continuously sampled. EEG data sampled at 250 Hz (transmitter bandwidth 0.5-100 Hz, low pass data filter 70 Hz). Data analysed using Somnologica 3 in 8 sec epochs and scored for either “wake” or “slow wave sleep” according to standard electrophysiological criteria (van Gool, W. A. & Mirmiran, M., Sleep, 9, 335 (1986)). Following recovery from etomidate anaesthesia, the amount of slow wave sleep was expressed as percentage of the circadian timed matched baseline.

[5] = molecular target: GABAA receptor β3 subunit N289S (Homo sapiens, UniProt P28472+Q16445, N290S); conditions: asparagine 289 of β3 to serine; cited from earlier work
GABAA receptor β3 subunit N289S, sequence (P28472 26-473 N290S, one chain of several): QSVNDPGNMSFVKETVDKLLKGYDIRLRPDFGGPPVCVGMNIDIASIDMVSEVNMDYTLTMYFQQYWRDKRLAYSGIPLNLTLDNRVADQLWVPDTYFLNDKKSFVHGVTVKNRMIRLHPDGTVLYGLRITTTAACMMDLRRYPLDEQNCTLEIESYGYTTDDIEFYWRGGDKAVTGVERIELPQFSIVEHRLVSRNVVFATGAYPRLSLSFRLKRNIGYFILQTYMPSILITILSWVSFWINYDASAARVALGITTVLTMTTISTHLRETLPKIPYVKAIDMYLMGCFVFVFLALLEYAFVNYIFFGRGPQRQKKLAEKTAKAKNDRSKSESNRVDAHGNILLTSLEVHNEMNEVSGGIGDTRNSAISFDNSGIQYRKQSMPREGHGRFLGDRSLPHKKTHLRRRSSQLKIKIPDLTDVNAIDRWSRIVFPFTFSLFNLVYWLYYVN
GABAA receptor β3 subunit N289S, sequence (Q16445 20-453, one chain of several): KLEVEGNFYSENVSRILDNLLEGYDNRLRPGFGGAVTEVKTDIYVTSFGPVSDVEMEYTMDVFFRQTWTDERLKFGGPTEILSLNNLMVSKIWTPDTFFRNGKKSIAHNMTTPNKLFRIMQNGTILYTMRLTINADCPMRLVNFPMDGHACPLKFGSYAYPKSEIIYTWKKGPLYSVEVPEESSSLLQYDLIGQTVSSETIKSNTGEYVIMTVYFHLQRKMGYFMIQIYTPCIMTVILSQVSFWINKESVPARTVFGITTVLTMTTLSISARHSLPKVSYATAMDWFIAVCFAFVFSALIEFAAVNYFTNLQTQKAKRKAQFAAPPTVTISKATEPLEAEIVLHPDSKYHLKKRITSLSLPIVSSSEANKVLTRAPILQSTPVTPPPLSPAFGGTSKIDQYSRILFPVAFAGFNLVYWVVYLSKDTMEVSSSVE

[6] = molecular target: T1, human GABAA receptor β2 subunit (position 289 mutant) (Homo sapiens, UniProt P14867+P47870, N289S); conditions: recombinant receptors expressed in cell lines; cited from earlier work
T1 construct: expressed in transfected cells
T1 sequence (P47870 25-512 N289S limits assumed): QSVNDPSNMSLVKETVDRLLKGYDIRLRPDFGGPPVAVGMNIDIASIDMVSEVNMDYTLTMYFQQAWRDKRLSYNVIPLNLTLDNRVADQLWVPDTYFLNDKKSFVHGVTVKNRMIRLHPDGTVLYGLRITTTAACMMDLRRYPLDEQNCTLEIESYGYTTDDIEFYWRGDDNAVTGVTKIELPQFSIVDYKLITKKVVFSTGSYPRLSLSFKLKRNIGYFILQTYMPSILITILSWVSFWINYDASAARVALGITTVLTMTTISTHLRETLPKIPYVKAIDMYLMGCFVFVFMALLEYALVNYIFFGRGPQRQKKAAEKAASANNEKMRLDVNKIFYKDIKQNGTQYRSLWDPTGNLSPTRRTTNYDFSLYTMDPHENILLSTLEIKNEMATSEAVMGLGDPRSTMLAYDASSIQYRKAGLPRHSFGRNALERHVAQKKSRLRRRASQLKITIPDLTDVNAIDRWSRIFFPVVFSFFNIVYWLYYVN
T1 sequence (P14867 28-456): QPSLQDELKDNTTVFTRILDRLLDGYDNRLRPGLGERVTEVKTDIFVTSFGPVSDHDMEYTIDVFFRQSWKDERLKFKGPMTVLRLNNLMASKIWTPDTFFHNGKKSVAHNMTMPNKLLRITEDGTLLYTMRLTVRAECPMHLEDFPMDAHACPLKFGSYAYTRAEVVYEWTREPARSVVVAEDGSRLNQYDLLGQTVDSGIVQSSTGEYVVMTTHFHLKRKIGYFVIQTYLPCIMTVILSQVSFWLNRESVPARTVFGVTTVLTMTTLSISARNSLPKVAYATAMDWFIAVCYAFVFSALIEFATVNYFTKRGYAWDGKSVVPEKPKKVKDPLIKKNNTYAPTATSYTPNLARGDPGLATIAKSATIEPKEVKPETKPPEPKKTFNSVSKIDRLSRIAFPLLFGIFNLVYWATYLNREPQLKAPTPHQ
T1 sequence (P18507 40-467 partner limits assumed): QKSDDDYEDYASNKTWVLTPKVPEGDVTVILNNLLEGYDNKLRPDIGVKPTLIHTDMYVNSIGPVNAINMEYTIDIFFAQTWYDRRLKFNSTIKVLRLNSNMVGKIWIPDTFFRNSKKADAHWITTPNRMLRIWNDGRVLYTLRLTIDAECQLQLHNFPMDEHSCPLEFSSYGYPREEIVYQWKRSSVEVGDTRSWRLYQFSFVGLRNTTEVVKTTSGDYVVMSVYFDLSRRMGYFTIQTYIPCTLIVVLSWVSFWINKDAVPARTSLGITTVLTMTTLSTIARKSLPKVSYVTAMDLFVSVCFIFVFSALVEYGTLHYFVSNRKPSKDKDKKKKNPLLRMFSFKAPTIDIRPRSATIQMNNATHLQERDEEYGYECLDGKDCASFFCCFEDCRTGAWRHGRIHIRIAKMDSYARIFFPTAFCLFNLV

## CC(=O)[C@H]1CC[C@H]2[C@@H]3CC[C@H]4C[C@H](O)CC[C@]4(C)[C@H]3C(=O)C[C@]12C [alphaxalone]
GABAA receptors
  potentiation of the action of GABA: markedly potentiate the action of GABA

## CCOC(=O)c1cncn1[C@H](C)c1ccccc1 [etomidate]
[1]; after i.p. dosing 20, 30 or 40 mg/kg, 'usually'
  time until righting reflex had disappeared: around 90 seconds
[1]; etomidate 20, 30 or 40 mg/kg i.p., F1,57=0.005, p=0.9498, FIG. 2
  duration of LORR, knock-in versus wildtype mice: nearly significantly similar
[2]; 15 mg/kg i.p.
  rate of recovery of rotarod performance, wildtype versus knock-in: recovered rotarod performance at a similar rate
[2]; 20 mg/kg and especially 30 mg/kg i.p.
  rate of recovery of rotarod performance, wildtype versus knock-in: wildtype mice recovered more slowly than knock-in mice
[2]; anesthetic doses
  recovery of performance in the rotarod assay, β2N289S mice compared with wildtype: dramatically faster recovery
[2]; knock-in mice, 15 mg/kg i.p.
  time mice could stay on rotarod: approximately 120 seconds
[2]; wildtype mice, 15 mg/kg i.p.
  time mice could stay on rotarod: approximately 120 seconds
[2]; wildtype mice, 15, 20, 30 mg/kg i.p., F18,243=5.80, p<0.00005, FIG. 3
  effect of dose on rate of rotarod recovery: clear effect on the rate of recovery with increasing dose
[3]
  EEG burst suppression (% of each minute EEG in suppression), wildtype versus knock-in: no significant difference in the EEG pattern of both genotypes
[4]; knock-in mice, P>0.05
  level of slow wave sleep versus circadian matched baseline after recovery: not statistically different
[4]; wildtype mice, up to 3 hours post recovery, ANOVA P<0.05
  level of slow wave sleep versus circadian matched baseline after recovery: enhanced level of sleep
GABAA receptors; β2 or β3 versus β1 subunit
  β subunit preference of potentiation and direct activation of receptors: favours receptors containing either a β2 or a β3 subunit, versus a β1 subunit
[5]
  effect of β3 N289S mutation on GABA-modulatory and GABA-mimetic effects: strongly suppressed
[6]
  sensitivity of mutant β2 (position 289) receptors: insensitive

## Cc1ncc2n1-c1ccc(Cl)cc1C(c1ccccc1F)=NC2 [midazolam]
[1]; midazolam 80 mg/kg i.p., F1,28=0.61, p=0.44
  duration of LORR, knock-in versus wildtype mice: no significant difference

## CCCC(C)C1(CC)C(=O)NC(=O)NC1=O (stereo not drawn) [pentobarbitone]
[1]; pentobarbitone 50 mg/kg i.p., F1,28=0.61, p=0.44
  duration of LORR, knock-in versus wildtype mice: no significant difference

## CC(C)c1cccc(C(C)C)c1O [propofol]
GABAA receptors
  potentiation of the action of GABA: markedly potentiate the action of GABA
